Assay results from patent US20040254162A1, “Oxazolidinone derivatives as antimicrobials” (priority 2001, published 2004).
In brackets after ≈: the same amount, converted by molar mass. Several values for one entry are separate records, joined by “and”; a condition that tells them apart may be missing. Identical values can stand only once.

Experiments:
[1] = tested on: MRSA 562; experiment: In vivo activity against MRSA 562 (ED50); parameters: species or system Methicillin Resistant Staphylococcus aureus; conditions: PO; MRSA 562 infection
[2] = tested on: MRSA 562; experiment: MIC, agar incorporation method; conditions: for MIC: MRSA 562, Table 5; for MIC MRSA 562: agar incorporation, Table 1
[3] = tested on: Ent. faecalis ATCC 29212; experiment: MIC, agar incorporation method; conditions: agar incorporation
[4] = tested on: MRSA 33; experiment: MIC, agar incorporation method; conditions: agar incorporation
[5] = tested on: G +ve bacteria; experiment: Summary of in vitro activity (MIC); conditions: for MIC50 / MIC90: G +ve, Number 49; for Geometric Mean of in vitro activity (MIC): Gram + ve
[6] = tested on: E. faecalis; experiment: Summary of in vitro activity (MIC); conditions: E. faecalis; for MIC50 / MIC90: Number 7
[7] = tested on: MRSA 15187; experiment: MIC, agar incorporation method; conditions: agar incorporation
[8] = tested on: S. pneum AB 34; experiment: MIC, agar incorporation method; conditions: agar incorporation
[9] = tested on: Strep. pyog. ATCC 19615; experiment: MIC, agar incorporation method; conditions: agar incorporation
[10] = tested on: S. aureus ATCC 25923; experiment: MIC, agar incorporation method; conditions: agar incorporation
[11] = tested on: S. pneumoniae; experiment: Summary of in vitro activity (MIC); conditions: S. pneumoniae; for MIC50 / MIC90: Number 19
[12] = tested on: S. aureus; experiment: Summary of in vitro activity (MIC); conditions: S. aureus; for MIC50 / MIC90: Number 8
[13] = tested on: VRE 6A (Ent. faecium 6A); experiment: MIC, agar incorporation method; conditions: agar incorporation
[14] = tested on: Strep. pne. ATCC 6303; experiment: MIC, agar incorporation method; conditions: agar incorporation

Structure (SMILES)	ED50 (mg/kg body weight) PO [1] [mg/kg body weight]	MIC [2] [µg/mL]	MIC E. faecalis 29212 [3]	MIC MRSA 33 [4]	MIC MRSA 562 [2] [µg/mL]	MIC MRSA 15187 [7]	MIC S. pneum AB 34 [8]	MIC S. pyogenes 19615 [9]	MIC S. aureus 25923 [10]	MIC VRE 6A [13]	MIC S. pneum 6303 [14] [µg/mL]	also measured
CC(=O)NC[C@H]1CN(c2ccc(N3CCN(Cc4ccc(NC=O)o4)CC3)c(F)c2)C(=O)O1 [Compound No. 67]	>25	2 (≈ 4.35 µM)										
CC(=O)NC[C@H]1CN(c2ccc(N3CC4C(CN(C)Cc5ccc([N+](=O)[O-])o5)C4C3)c(F)c2)C(=O)O1 (stereo partly drawn) [Compound No. 40, (S)-N-[[3-[3-Fluoro[4-[3-(1α,5α,6α)-6-[N-(5-nitro-2-furylmethyl)-N-methyl]amino-methyl]-3-azabicyclo-[3.1.0]hexane]phenyl]-2-oxo-5-oxazolidinyl]methyl]acetamide]			2 µg/mL (≈ 3.99 µM)	2 µg/mL (≈ 3.99 µM)	1 (≈ 1.99 µM)	2 µg/mL (≈ 3.99 µM)	2 µg/mL (≈ 3.99 µM)	0.125 µg/mL (≈ 0.249 µM)	2 µg/mL (≈ 3.99 µM)	4 µg/mL (≈ 7.98 µM)		MIC50 [5]: 1 µg/mL (≈ 1.99 µM); MIC90 [5]: 2 µg/mL (≈ 3.99 µM); Geometric Mean of in vitro activity (MIC) [5]: 0.93 µg/mL; Geometric Mean of in vitro activity (MIC) [6]: 2.38 µg/mL; MIC50 [6]: 2 µg/mL (≈ 3.99 µM); MIC90 [6]: 4 µg/mL (≈ 7.98 µM); Geometric Mean of in vitro activity (MIC) [11]: 0.71 µg/mL; MIC50 [11]: 1 µg/mL (≈ 1.99 µM); MIC90 [11]: 1 µg/mL (≈ 1.99 µM); Geometric Mean of in vitro activity (MIC) [12]: 1.83 µg/mL; MIC50 [12]: 2 µg/mL (≈ 3.99 µM); MIC90 [12]: 4 µg/mL (≈ 7.98 µM)
CC(=O)NC[C@H]1CN(c2ccc(N3CCN(C(=O)c4ccc(Br)o4)CC3)c(F)c2)C(=O)O1 [Compound No. 04]	>25		2 µg/mL (≈ 3.93 µM)	2 µg/mL (≈ 3.93 µM)		2 µg/mL (≈ 3.93 µM)	1 µg/mL (≈ 1.96 µM)	2 µg/mL (≈ 3.93 µM)	2 µg/mL (≈ 3.93 µM)	1 µg/mL (≈ 1.96 µM)	1 (≈ 1.96 µM)	
CC1(C)S[C@@H]2[C@H](NC(=O)Cc3ccccc3)C(=O)N2[C@H]1C(=O)O [Penicillin G, reference compound]												MIC50 [5]: 4 µg/mL (≈ 12 µM); MIC90 [5]: 32 µg/mL (≈ 95.7 µM); Geometric Mean of in vitro activity (MIC) [5]: 0.76 µg/mL; Geometric Mean of in vitro activity (MIC) [11]: 2.16 µg/mL; MIC50 [11]: 4 µg/mL (≈ 12 µM); MIC90 [11]: 32 µg/mL (≈ 95.7 µM)
CC(=O)NC[C@H]1CN(c2ccc(N3CCN(C(=O)C(=O)c4cccs4)CC3)c(F)c2)C(=O)O1 [Compound No. 07, (S)-N[[3-[3-Fluoro-4-[N-1[4-{2-(2-thienyl)dicarbonyl}]piperazinyl]phenyl]2-oxo-5-oxazolidinyl]methyl]acetamide]	>25	2 (≈ 4.21 µM)	2 µg/mL (≈ 4.21 µM)	2 µg/mL (≈ 4.21 µM)	2 (≈ 4.21 µM)	2 µg/mL (≈ 4.21 µM)	2 µg/mL (≈ 4.21 µM)	0.5 µg/mL (≈ 1.05 µM)	2 µg/mL (≈ 4.21 µM)	2 µg/mL (≈ 4.21 µM)	2 (≈ 4.21 µM)	
CC(=O)NC[C@H]1CN(c2ccc(N3CCN(Cc4ccc(C5OCCCO5)o4)CC3)c(F)c2)C(=O)O1 [Compound No. 66]			16 µg/mL (≈ 31.8 µM)	2 µg/mL (≈ 3.98 µM)	2 (≈ 3.98 µM)	2 µg/mL (≈ 3.98 µM)	8 µg/mL (≈ 15.9 µM)	8 µg/mL (≈ 15.9 µM)	2 µg/mL (≈ 3.98 µM)	16 µg/mL (≈ 31.8 µM)	8 (≈ 15.9 µM)	
CC(=O)NC[C@H]1CN(c2ccc(N3CCN(Cc4ccc(Br)s4)CC3)c(F)c2)C(=O)O1 [Compound No. 27]			2 µg/mL (≈ 3.91 µM)	2 µg/mL (≈ 3.91 µM)	2 (≈ 3.91 µM)	2 µg/mL (≈ 3.91 µM)	0.5 µg/mL (≈ 0.978 µM)	1 µg/mL (≈ 1.96 µM)	2 µg/mL (≈ 3.91 µM)	4 µg/mL (≈ 7.82 µM)	2 (≈ 3.91 µM)	
CC(=O)NC[C@H]1CN(c2ccc(N3C[C@@H]4[C@H](C3)[C@H]4N(C)Cc3ccc([N+](=O)[O-])s3)c(F)c2)C(=O)O1 [Compound No. 34, (S)-N-[[3-[3-Fluoro[4-[3-(1α,5α,6α)-6-[N-(5-nitro-2-thienylmethyl)-N-methyl]-amino]-3-azabicyclo-[3.1.0]hexane]phenyl]-2-oxo-5-oxazolidinyl]methyl]acetamide]			1 µg/mL (≈ 1.99 µM)	1 µg/mL (≈ 1.99 µM)	1 (≈ 1.99 µM)	1 µg/mL (≈ 1.99 µM)	4 µg/mL (≈ 7.94 µM)	2 µg/mL (≈ 3.97 µM)	1 µg/mL (≈ 1.99 µM)	1 µg/mL (≈ 1.99 µM)	4 (≈ 7.94 µM)	
CC(=O)NC[C@H]1CN(c2ccc(N3C[C@@H]4[C@@H](CN(C)C(=O)Cc5cccs5)[C@@H]4C3)c(F)c2)C(=O)O1 [Compound No. 38, (S)-N-[[3-[3-Fluoro[4-[3-(1α,5α,6α)-6-[N-(2-thiopheneacetyl)-N-methyl]amino-methyl]-3-azabicyclo-[3.1.0]hexane]phenyl]-2-oxo-5-oxazolidinyl]methyl]acetamide]			4 µg/mL (≈ 7.99 µM)	4 µg/mL (≈ 7.99 µM)	4 (≈ 7.99 µM)	4 µg/mL (≈ 7.99 µM)	1 µg/mL (≈ 2 µM)	1 µg/mL (≈ 2 µM)	4 µg/mL (≈ 7.99 µM)	4 µg/mL (≈ 7.99 µM)	1 (≈ 2 µM)	
CC(=O)NC[C@H]1CN(c2ccc(N3CCN(Cc4ccc(C=NN)o4)CC3)c(F)c2)C(=O)O1 [Compound No. 62, (S)-N-[[3-[3-Fluoro-4[N-1-[4-{2-furyl-(5-hydrazone)-methyl}]-piperazinyl]-phenyl]-2-oxo-5-oxazolidinyl]-methyl]acetamide]			8 µg/mL (≈ 17.4 µM)	2 µg/mL (≈ 4.36 µM)	1 (≈ 2.18 µM)	2 µg/mL (≈ 4.36 µM)	8 µg/mL (≈ 17.4 µM)	8 µg/mL (≈ 17.4 µM)	2 µg/mL (≈ 4.36 µM)	8 µg/mL (≈ 17.4 µM)	8 (≈ 17.4 µM)	
CC(=O)NC[C@H]1CN(c2ccc(N3CCC(N(C)Cc4ccc([N+](=O)[O-])o4)CC3)c(F)c2)C(=O)O1 [Compound No. 50, (S)-N-[[3-[4-[4-(N-methyl-N-2-furyl(5-nitro)methyl)aminopiperidine-1-yl]-3-fluorophenyl]-2-oxo-oxazolidin-5-yl]methyl]acetamide]		0.5 (≈ 1.02 µM)	0.5 µg/mL (≈ 1.02 µM)	1 µg/mL (≈ 2.04 µM)	0.5 (≈ 1.02 µM)	1 µg/mL (≈ 2.04 µM)	2 µg/mL (≈ 4.09 µM)	0.125 µg/mL (≈ 0.255 µM)	1 µg/mL (≈ 2.04 µM)	0.25 µg/mL (≈ 0.511 µM)	0.5 (≈ 1.02 µM)	MIC50 [5]: 1 µg/mL (≈ 2.04 µM); MIC90 [5]: 2 µg/mL (≈ 4.09 µM); Geometric Mean of in vitro activity (MIC) [5]: 0.72 µg/mL; Geometric Mean of in vitro activity (MIC) [6]: 0.42 µg/mL; MIC50 [6]: 0.5 µg/mL (≈ 1.02 µM); MIC90 [6]: 1 µg/mL (≈ 2.04 µM); Geometric Mean of in vitro activity (MIC) [11]: 1.41 µg/mL; MIC50 [11]: 1 µg/mL (≈ 2.04 µM); MIC90 [11]: 2 µg/mL (≈ 4.09 µM); Geometric Mean of in vitro activity (MIC) [12]: 1 µg/mL; MIC50 [12]: 1 µg/mL (≈ 2.04 µM); MIC90 [12]: 2 µg/mL (≈ 4.09 µM)
CC(=O)NC[C@H]1CN(c2ccc(N3CC4C(C3)C4N(C)C(=O)Cc3cccs3)c(F)c2)C(=O)O1 (stereo partly drawn) [Compound No. 71, (S)-N-[[3-[3-Fluoro[4-[3-(1α,5α,6α)-6-[N-(2-thiopheneacetyl)-N-methyl]amino]-3-azabicyclo-[3.1.0]hexane]phenyl]-2-oxo-5-oxazolidinyl]methyl]acetamide]	>25	4 (≈ 8.22 µM)	8 µg/mL and 4 µg/mL	8 µg/mL and 4 µg/mL		8 µg/mL and 4 µg/mL	2 µg/mL and 4 µg/mL	4 µg/mL and 2 µg/mL	8 µg/mL and 4 µg/mL	8 µg/mL and 4 µg/mL	4 (≈ 8.22 µM)	
CC(=O)NC[C@H]1CN(c2ccc(N3CC4C(CN(C)Cc5ccc([N+](=O)[O-])s5)C4C3)c(F)c2)C(=O)O1 (stereo partly drawn) [Compound No. 39, (S)-N-[[3-[3-Fluoro[4-[3-(1α,5α,6α)-6-[N-(5-nitro-2-thienylmethyl)-N-methyl]-amino-methyl]-3-azabicyclo-[3.1.0]hexane]phenyl]-2-oxo-5-oxazolidinyl]methyl]acetamide]			2 µg/mL (≈ 3.86 µM)	4 µg/mL (≈ 7.73 µM)	8 (≈ 15.5 µM)	8 µg/mL (≈ 15.5 µM)	0.5 µg/mL (≈ 0.966 µM)	0.5 µg/mL (≈ 0.966 µM)	8 µg/mL (≈ 15.5 µM)	8 µg/mL (≈ 15.5 µM)	0.5 (≈ 0.966 µM)	
